pIC50: −log10 of the molar value. Each block holds one molecule with its values, some of them ahead of it.
Tests used:
[1] = target: T1, N-lysine methyltransferase SMYD2 (Homo sapiens, UniProt Q9NRG4); assay: Inhibition of SMYD2 (unknown origin) assessed as residual activity at 10 uM using 3H-SAM as substrate incubated for 1 hr by filter binding method relative to control
[2] = target: T1, N-lysine methyltransferase SMYD2; assay: Inhibition of SMYD2 (unknown origin) using 3H-SAM as substrate incubated for 1 hr by filter binding method
[3] = target: Glycogen synthase kinase-3 beta (Homo sapiens, UniProt P49841); assay: Inhibition of GSK3beta (unknown origin)
Glycogen synthase kinase-3 beta, sequence (P49841 whole entry): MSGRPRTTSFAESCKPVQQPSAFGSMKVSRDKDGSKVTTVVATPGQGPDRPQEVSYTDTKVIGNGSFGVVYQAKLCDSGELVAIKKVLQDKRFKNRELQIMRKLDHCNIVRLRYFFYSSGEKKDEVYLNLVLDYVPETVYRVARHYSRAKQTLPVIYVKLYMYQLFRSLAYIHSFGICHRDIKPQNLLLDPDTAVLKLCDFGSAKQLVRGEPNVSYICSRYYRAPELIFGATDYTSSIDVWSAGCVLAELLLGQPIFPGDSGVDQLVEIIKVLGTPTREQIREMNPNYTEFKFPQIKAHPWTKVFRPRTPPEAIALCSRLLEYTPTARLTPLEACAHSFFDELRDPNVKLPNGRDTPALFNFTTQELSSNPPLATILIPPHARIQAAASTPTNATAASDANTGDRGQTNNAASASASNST

Ca-Ski = assay: cells; type: functional, cell-based; conditions: Homo sapiens, 72 h
Description: Antiproliferative activity against human Ca-Ski cells assessed as inhibition of cell growth incubated for 72 hrs by CellTiter-Glo luminescent cell viability assay

MDA-MB-231 = assay: Antiproliferative activity against human MDA-MB-231 cells assessed as inhibition of cell growth incubated for 72 hrs by CellTiter-Glo luminescent cell viability assay; type: functional, cell-based; conditions: MDA-MB-231, 72 h
[4] = AUCinfinity in ICR mouse at 40 mg/kg, ip administered as vehicle 1 as DMSO/Cremophor EL/ PEG400/ DDW formulation measured upto 1440 mins by LC-MS/MS analysis; type: ADME, organism-based; design: dose 40 mg/kg, time < 1440 min, route ip; conditions: in vivo
MDA-MB-453 [5] = assay: cells; type: functional, cell-based; conditions: Homo sapiens, MDA-MB-453, 72 h
Description: Antiproliferative activity against human MDA-MB-453 cells assessed as inhibition of cell growth incubated for 72 hrs by CellTiter-Glo luminescent cell viability assay

[6] = Metabolic stability in mouse liver microsomes assessed as parent compound remaining at 5 uM preincubated for 5 mins with NADPH followed by compound addition and measured after 15 mins by LC-MS/MS analysis; type: ADME, Microsome; conditions: read-out: Stability
[7] = AUClast in ICR mouse at 40 mg/kg, ip administered as vehicle 1 as DMSO/Cremophor EL/ PEG400/ DDW formulation measured upto 1440 mins by LC-MS/MS analysis; type: ADME, organism-based; design: time < 1440 min, dose 40 mg/kg, route ip; conditions: in vivo
[8] = Tmax in ICR mouse at 40 mg/kg, ip administered as vehicle 1 as DMSO/Cremophor EL/ PEG400/ DDW formulation measured upto 1440 mins by LC-MS/MS analysis; type: ADME, organism-based; conditions: in vivo
[9] = Cmax in ICR mouse at 40 mg/kg, ip administered as vehicle 1 as DMSO/Cremophor EL/ PEG400/ DDW formulation measured upto 1440 mins by LC-MS/MS analysis; type: ADME, organism-based; design: dose 40 mg/kg, time < 1440 min, route ip; conditions: in vivo
[10] = Drug metabolism in liver microsomes (unknown origin) assessed as M-56 metabolite formation by LC-MS/MS analysis; type: ADME, Microsome
[11] = Drug metabolism in liver microsomes (unknown origin) assessed as M+18 metabolite formation by LC-MS/MS analysis; type: ADME, Microsome
[12] = Drug metabolism in liver microsomes (unknown origin) assessed as M-254 metabolite formation by LC-MS/MS analysis; type: ADME, Microsome
[13] = Drug metabolism in liver microsomes (unknown origin) assessed as M-115 metabolite formation by LC-MS/MS analysis; type: ADME, Microsome
[14] = Drug metabolism in liver microsomes (unknown origin) assessed as M-78 metabolite formation by LC-MS/MS analysis; type: ADME, Microsome
[15] = Terminal half life in ICR mouse at 40 mg/kg, ip administered as vehicle 1 as DMSO/Cremophor EL/ PEG400/ DDW formulation measured upto 1440 mins by LC-MS/MS analysis; type: ADME, organism-based; conditions: in vivo, read-out: beta t1/2
[16] = Cmax in ICR mouse at 40 mg/kg, ip administered as vehicle 2 as corn oil suspension measured upto 1440 mins by LC-MS/MS analysis; type: ADME, organism-based; design: time < 1440 min, dose 40 mg/kg, route ip; conditions: in vivo
[17] = Tmax in ICR mouse at 40 mg/kg, ip administered as vehicle 2 as corn oil suspension measured upto 1440 mins by LC-MS/MS analysis; type: ADME, organism-based; conditions: in vivo
[18] = AUClast in ICR mouse at 40 mg/kg, ip administered as vehicle 2 as corn oil suspension measured upto 1440 mins by LC-MS/MS analysis; type: ADME, organism-based; design: dose 40 mg/kg, time < 1440 min, route ip; conditions: in vivo
[19] = AUCinfinity in ICR mouse at 40 mg/kg, ip administered as vehicle 2 as corn oil suspension measured upto 1440 mins by LC-MS/MS analysis; type: ADME, organism-based; design: time < 1440 min, dose 40 mg/kg, route ip; conditions: in vivo
[20] = Terminal half life in ICR mouse at 40 mg/kg, ip administered as vehicle 2 as corn oil suspension measured upto 1440 mins by LC-MS/MS analysis; type: ADME, organism-based; conditions: in vivo, read-out: beta t1/2
[21] = Drug uptake in ICR mouse plasma assessed as time required to reach higher drug level at 40 mg/kg, ip administered as vehicle 1 as DMSO/Cremophor EL/ PEG400/ DDW formulation measured upto 1440 mins by HPLC analysis; type: ADME, organism-based
[22] = Drug concentration in ICR mouse plasma at 40 mg/kg, ip administered as vehicle 2 as corn oil suspension measured upto 1440 mins by HPLC analysis; type: ADME, organism-based
MDA-MB-453 [23] = assay: Antitumor activity against human MDA-MB-453 cells xenografted in BALB/c nude mouse assessed as reduction in tumor volume at 40 mg/kg, ip measured on day 1 by caliper method (reference value: 137 +/- 10 mm3); type: functional; conditions: time 1 day
MDA-MB-453 [24] = assay: Antitumor activity against human MDA-MB-453 cells xenografted in BALB/c nude mouse assessed as reduction in tumor volume at 40 mg/kg, ip measured on day 4 by caliper method (reference value: 145 +/- 11 mm3); type: functional; conditions: time 4 day
MDA-MB-453 [25] = assay: Antitumor activity against human MDA-MB-453 cells xenografted in BALB/c nude mouse assessed as reduction in tumor volume at 40 mg/kg, ip measured every 3 days for 8 days by caliper method (reference value: 152+/- 11 mm3); type: functional; conditions: time 8 day
MDA-MB-453 [26] = assay: Antitumor activity against human MDA-MB-453 cells xenografted in BALB/c nude mouse assessed as reduction in tumor volume at 40 mg/kg, ip measured every 3 days for 11 days by caliper method (reference value: 168 +/- 16 mm3); type: functional; conditions: time 11 day
MDA-MB-453 [27] = assay: Antitumor activity against human MDA-MB-453 cells xenografted in BALB/c nude mouse assessed as reduction in tumor volume at 40 mg/kg, ip measured every 3 days for 15 days by caliper method (reference value: 177 +/- 19 mm3); type: functional; conditions: time 15 day
MDA-MB-453 [28] = assay: Antitumor activity against human MDA-MB-453 cells xenografted in BALB/c nude mouse assessed as reduction in tumor weight at 40 mg/kg, ip measured after 15 days (reference value: 0.038 +/- 0.02 g); type: functional; conditions: time 15 day
MDA-MB-453 [29] = assay: Antitumor activity against human MDA-MB-453 cells xenografted in BALB/c nude mouse assessed as tumor growth inhibition rate at 40 mg/kg, ip measured after 15 days relative to control; type: functional; conditions: MDA-MB-453, 360 h, time 15 day, read-out: TGI
[30] = Toxicity in […] xenografted with human MDA-MB-453 cells assessed as body weight loss at 40 mg/kg, ip administered as DMSO/Cremophor EL/ PEG400/ DDW formulation and measured after 4 days; type: organism-based; conditions: in vivo, 96 h, time 4 day
MDA-MB-453 [31] = assay: Antitumor activity against human MDA-MB-453 cells xenografted in ip dosed BALB/c nude mouse assessed as reduction in tumor growth measured after 15 days; type: functional; conditions: MDA-MB-453, 360 h, time 15 day
HEK293 = assay: Induction of apoptosis in HEK293 cells assessed as increase in cleaved PARP level incubated for 24 hrs by immunoblot analysis; type: toxicity, cell-based; conditions: human, hek293, 24 h, DDE = dose-dependent effect, dose 0.0195-10 µM

T1 sequence (Q9NRG4 whole entry): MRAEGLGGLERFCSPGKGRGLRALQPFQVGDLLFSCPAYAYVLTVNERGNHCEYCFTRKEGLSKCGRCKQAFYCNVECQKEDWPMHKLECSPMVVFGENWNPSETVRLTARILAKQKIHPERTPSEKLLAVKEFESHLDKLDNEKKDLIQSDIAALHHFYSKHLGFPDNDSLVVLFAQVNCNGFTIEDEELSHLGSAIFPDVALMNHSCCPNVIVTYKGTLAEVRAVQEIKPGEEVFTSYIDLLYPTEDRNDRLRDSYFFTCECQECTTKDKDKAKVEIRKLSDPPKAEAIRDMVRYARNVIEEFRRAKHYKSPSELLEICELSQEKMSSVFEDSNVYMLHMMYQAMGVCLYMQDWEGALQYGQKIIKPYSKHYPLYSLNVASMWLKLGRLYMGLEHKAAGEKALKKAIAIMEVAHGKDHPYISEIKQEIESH

- Activity [1]: 12.6%
- pIC50 [2]: 5.42
Structure (SMILES): CN1C(=O)C(CCNc2ccc(Cl)c(Cl)c2)COC12C=CC(=O)C=C2 (configuration not stated)

- pIC50 [2]: 5.24
Structure (SMILES): CN1C(=O)C(CCO[Si](c2ccccc2)(c2ccccc2)C(C)(C)C)COC12C=CC(=NNc1ccccc1)C=C2 (configuration not stated)

- Activity [1]: 50.4%
- pIC50 [2]: < 4.70
Structure (SMILES): CC(C)N1C(=O)C(Cc2ccccc2CS(=O)(=O)c2ccccc2)COC12C=CC(=O)C=C2 (configuration not stated)

- Activity [1]: 66.7%
- pIC50 [2]: < 4.70
Structure (SMILES): CC(C)N1C(=O)C(Cc2ccc([N+](=O)[O-])cc2)COC12C=CC(=O)C=C2 (configuration not stated)

- pIC50 [2]: 6.40
Structure (SMILES): CC(C)N1C(=O)C(CCO[Si](c2ccccc2)(c2ccccc2)C(C)(C)C)COC12C=CC(=O)C=C2 (configuration not stated)

- pIC50 [2]: 5.51
- pIC50 [3]: 5.82
Structure (SMILES): O=C1C=CC2(C=C1)OCC(Cc1cn(-c3cccc(Cc4ccccc4)c3)nn1)C(=O)N2c1ccccc1 (configuration not stated)

- Activity [1]: 13.6%
- pIC50 [2]: 5.21
Structure (SMILES): CN1C(=O)C(CCNc2cccc(Cc3ccccc3)c2)COC12C=CC(=O)C=C2 (configuration not stated)

- Activity [1]: 6.94%
- pIC50 [2]: 5.67
- pIC50 (Ca-Ski): 6.10
- pIC50 (MDA-MB-231): 6.18
Structure (SMILES): CN1C(=O)C(CCNc2cc(C(F)(F)F)cc(C(F)(F)F)c2)COC12C=CC(=O)C=C2 (configuration not stated)

- Activity [1]: 44.6%
- pIC50 [2]: < 4.70
Structure (SMILES): CN1C(=O)C(CCNc2ccc(C(=O)c3ccccc3)cc2)COC12C=CC(=O)C=C2 (configuration not stated)

- Activity [1]: 16.1%
- pIC50 [2]: 5.64
Structure (SMILES): CN1C(=O)C(CCNc2ccc(-c3cccs3)cc2)COC12C=CC(=O)C=C2 (configuration not stated)

- Activity [1]: 33.8%
- pIC50 [2]: < 4.70
Structure (SMILES): CC(C)N1C(=O)C(Cc2ccc(C(F)(F)F)cc2)COC12C=CC(=O)C=C2 (configuration not stated)

- pIC50 [2]: 8.52
Structure (SMILES): O=C1COc2c([C@@H](O)CNCCN(C(=O)CCNCCc3ccc(Cl)c(Cl)c3)C3CCCCC3)ccc(O)c2N1

- Activity [1]: 20.6%
- pIC50 [2]: 4.94
Structure (SMILES): CN1C(=O)C(CCNc2ccc(F)cc2)COC12C=CC(=O)C=C2 (configuration not stated)

- Activity [1]: 96.5%
- pIC50 [2]: < 4.70
Structure (SMILES): CC1COC2(C=CC(=O)C=C2)N(C(C)C)C1=O (configuration not stated)

- Activity [1]: 19.9%
- pIC50 [2]: 5.51
- pIC50 (Ca-Ski): 6.03
- pIC50 (MDA-MB-231): 5.97
Structure (SMILES): CN1C(=O)C(C/C=N/n2c3ccccc3c3ccccc32)COC12C=CC(=O)C=C2 (configuration not stated)

- Activity [1]: 53.5%
- pIC50 [2]: 5.12
Structure (SMILES): CN1C(=O)C(CCNc2cc(F)cc(C(F)(F)F)c2)COC12C=CC(=O)C=C2 (configuration not stated)

- AUC(0-inf) [4]: 6050 ng·h/mL
- pIC50 [2]: 6.17
- pIC50 (Ca-Ski): 6.75
- pIC50 (MDA-MB-231): 7.07
- pIC50 (MDA-MB-453 [5]): 7.93
- remaining at 0.25 h, 5 µM [6]: 1.22%
- AUC(0-t) at 24 h [7]: 5810 ng·h/mL
- Tmax [8]: 0.25 h
- Cmax [9]: 1400 ng/mL
- Drug metabolism [10]: Metabolite_Detected
- Drug metabolism [11]: Metabolite_Detected
- Drug metabolism [12]: Metabolite_Detected
- Drug metabolism [13]: Metabolite_Detected
- Drug metabolism [14]: Metabolite_Detected
- half-life [15]: 4.83 h
- Cmax [16]: 301 ng/mL
- Tmax [17]: 1.17 h
- AUC(0-t) at 24 h [18]: 1560 ng·h/mL
- AUC(0-inf) [19]: 3130 ng·h/mL
- half-life [20]: 15.9 h
- Tmax [21]: 8 h
- concentration at 24 h [22]: 279 ng/mL
Structure (SMILES): CN1C(=O)C(CCO[Si](c2ccccc2)(c2ccccc2)C(C)(C)C)COC12C=CC(=O)C=C2 (configuration not stated)
- Activity (MDA-MB-453 [23]): 136 mm3
- Activity (MDA-MB-453 [24]): 126 mm3
- Activity (MDA-MB-453 [25]): 105 mm3
- Activity (MDA-MB-453 [26]): 87 mm3
- Activity (MDA-MB-453 [27]): 67 mm3
- Activity (MDA-MB-453 [28]): 0.009 g
- inhibition in vivo at 40 mg/kg (MDA-MB-453 [29]): 77.7%
- Activity [30]: Toxic
- ED50 (MDA-MB-453 [31]): < 40 mg/kg
- Activity (HEK293): Dde

- Activity [1]: 101%
- pIC50 [2]: < 4.70
Structure (SMILES): C=CCC1COC2(C=CC(=O)C=C2)N(C(C)C)C1=O (configuration not stated)

Source: ChEMBL document CHEMBL5143511, “Positioning of an unprecedented 1,5-oxaza spiroquinone scaffold into SMYD2 inhibitors in epigenetic space” (Eur J Med Chem, 2022)
